The values that follow come from patent US20250090540A1, “PI3K-ALPHA INHIBITORS AND METHODS OF USE THEREOF” (Relay Therapeutics, Inc., priority 2021, published 2025).

One may read the IC50 as the concentration needed to halve the response being measured. Low values mean greater potency in that assay, high ones weaker potency in that assay.

The target in one test is H1047R PIK3CA enzyme (Homo sapiens, UniProt P42336, H1047R). The test is described as follows: ADP-Glo Biochemical PIK3CA Kinase Assay.
H1047R PIK3CA enzyme, sequence (P42336 whole entry H1047R): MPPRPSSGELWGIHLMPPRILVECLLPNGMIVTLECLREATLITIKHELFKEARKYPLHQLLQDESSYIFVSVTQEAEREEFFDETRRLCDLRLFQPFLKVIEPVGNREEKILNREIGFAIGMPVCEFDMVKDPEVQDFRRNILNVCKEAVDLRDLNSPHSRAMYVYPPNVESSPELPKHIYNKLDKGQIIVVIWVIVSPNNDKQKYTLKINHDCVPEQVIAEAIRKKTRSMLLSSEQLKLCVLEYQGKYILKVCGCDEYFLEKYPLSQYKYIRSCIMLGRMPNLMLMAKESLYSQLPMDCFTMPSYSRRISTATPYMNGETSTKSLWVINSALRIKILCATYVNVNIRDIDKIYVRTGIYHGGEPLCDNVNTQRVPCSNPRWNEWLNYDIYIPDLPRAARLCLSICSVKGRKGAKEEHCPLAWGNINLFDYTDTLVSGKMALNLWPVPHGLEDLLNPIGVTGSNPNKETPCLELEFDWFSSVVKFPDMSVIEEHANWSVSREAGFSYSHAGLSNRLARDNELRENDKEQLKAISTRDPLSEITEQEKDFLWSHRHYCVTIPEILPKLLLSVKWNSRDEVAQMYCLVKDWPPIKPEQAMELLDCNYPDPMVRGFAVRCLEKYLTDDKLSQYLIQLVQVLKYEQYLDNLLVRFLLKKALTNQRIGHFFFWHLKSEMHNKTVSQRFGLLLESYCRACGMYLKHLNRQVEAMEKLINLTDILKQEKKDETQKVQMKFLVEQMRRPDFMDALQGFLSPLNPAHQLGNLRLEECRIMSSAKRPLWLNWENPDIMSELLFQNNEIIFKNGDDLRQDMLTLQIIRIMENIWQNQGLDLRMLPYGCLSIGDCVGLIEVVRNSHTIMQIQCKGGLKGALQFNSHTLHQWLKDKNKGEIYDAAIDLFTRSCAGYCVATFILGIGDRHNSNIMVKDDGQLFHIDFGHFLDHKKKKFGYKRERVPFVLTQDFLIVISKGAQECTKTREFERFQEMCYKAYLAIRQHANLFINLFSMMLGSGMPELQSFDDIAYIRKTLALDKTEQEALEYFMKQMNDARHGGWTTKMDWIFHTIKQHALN
H1047R PIK3CA enzyme, sequence (P27986 whole entry partner): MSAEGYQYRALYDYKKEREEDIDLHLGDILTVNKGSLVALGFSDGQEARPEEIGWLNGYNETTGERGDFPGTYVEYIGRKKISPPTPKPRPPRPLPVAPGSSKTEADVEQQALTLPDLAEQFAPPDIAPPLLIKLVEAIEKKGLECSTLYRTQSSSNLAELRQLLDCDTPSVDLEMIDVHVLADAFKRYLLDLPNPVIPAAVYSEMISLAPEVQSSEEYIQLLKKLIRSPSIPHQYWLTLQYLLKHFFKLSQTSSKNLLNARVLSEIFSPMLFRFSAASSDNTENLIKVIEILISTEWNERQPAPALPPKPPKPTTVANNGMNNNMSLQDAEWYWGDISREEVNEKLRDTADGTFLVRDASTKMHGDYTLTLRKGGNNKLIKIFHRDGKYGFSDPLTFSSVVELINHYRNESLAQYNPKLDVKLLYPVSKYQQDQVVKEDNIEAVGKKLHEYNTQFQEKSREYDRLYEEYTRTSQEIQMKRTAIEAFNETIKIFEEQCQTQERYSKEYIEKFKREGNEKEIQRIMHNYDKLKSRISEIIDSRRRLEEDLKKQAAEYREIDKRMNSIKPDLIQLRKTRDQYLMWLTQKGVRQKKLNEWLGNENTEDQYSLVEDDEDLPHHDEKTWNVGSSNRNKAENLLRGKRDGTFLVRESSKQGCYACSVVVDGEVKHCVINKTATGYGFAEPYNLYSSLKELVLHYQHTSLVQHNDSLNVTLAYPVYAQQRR
Details: not given
For orientation: ADP-Glo turns the ADP formed in a reaction into a luminescent signal.
Take `CC1CCc2ccccc2N1c1ncc(C(=O)NC2CS(=O)(=O)C2)cc1NC(=O)c1csc2ccccc12` (stereo not drawn) [I-216]: the IC50 is 1 to 10 µM.

`CNC(=O)c1cc(NC(=O)c2cc(F)cc(C(F)(F)F)c2)c(N(C)c2ccccc2C)cn1` [I-325] registered an IC50 of 1 to 10 µM.

On to `CNC(=O)c1cc(NC(=O)c2cc(F)cc(C(F)(F)F)c2)c(Nc2cc(F)ccc2Cl)s1` [I-827, 5-((2-chloro-5-fluorophenyl)amino)-4-(3-fluoro-5-(trifluoromethyl)benzamido)-N-methylthiophene-2-carboxamide], for which the IC50 lay within 0.5 to 1 µM.

Molecule `CNC(=O)c1cnc(Nc2ccccc2C)c(NC(=O)C(c2ccccc2)C(C)C)c1` (stereo not drawn) [I-166] had an IC50 of 10 to 100 µM.

Regarding `Cc1ccccc1Nc1ncc(-c2cnn(C)c2)cc1NC(=O)c1cccn2nccc12` [I-89], the half-inhibitory concentration (IC50) fell in the range of 10 to 100 µM.

Turning to `O=C(Nc1cccc(=O)n1Cc1ccccc1Cl)c1csc2ccccc12` [I-807], the concentration for half-maximal inhibition (IC50) is 10 to 100 µM.

Take `Cc1ccccc1Nc1ncc(-c2cccnc2)cc1NC(=O)c1cc(F)cc(C(F)(F)F)c1` [I-77]: the concentration for half-maximal inhibition (IC50) was in the range of 1 to 10 µM.

For `CNC(=O)c1cnc(Nc2ccccc2C)c(NC(=O)CC2CCc3ccccc32)c1` (stereo not drawn) [I-170], the IC50 lay within 10 to 100 µM.

The molecule `COc1cc(F)cc(C(=O)Nc2cc(-c3cnn(C)c3)cnc2Nc2ccccc2C)c1` [I-94] had a half-inhibitory concentration (IC50) of 10 to 100 µM.

In turn, `Cc1ccccc1Nc1ncc(-c2cnn(C)c2)cc1NC(=O)c1cccc2cn(C)nc12` [I-121] had a 50% inhibitory concentration (IC50) of 10 to 100 µM.

For the molecule `Cc1ccccc1Nc1ncc(C(=O)NCC2(O)CCCCC2)cc1NC(=O)c1csc2ccccc12` [I-189], the IC50 lay in the range of 0.5 to 1 µM.

`CNC(=O)c1cnc(Nc2ccccc2)c([N+](=O)[O-])c1` [I-24] registered an IC50 of 10 to 100 µM.

`CNC(=O)c1cnc(Nc2ccccc2C)c(NC(=O)c2cnccc2C(F)(F)F)c1` [I-365] showed an IC50 of 10 to 100 µM.

Molecule `Cc1ccccc1Nc1ncc(-c2cnn(C)c2)cc1NC(=O)c1cccc(N(C)C)c1` [I-120] yielded a half-inhibitory concentration (IC50) of 10 to 100 µM.

In turn, `CNC(=O)c1cnc(Nc2ccccc2C)c(NC(=O)C2CCNc3ccccc32)c1` (stereo not drawn) [I-386] had a 50% inhibitory concentration (IC50) of 10 to 100 µM.

For `Cc1ccccc1Nc1ncc(C(=O)Nc2ccccc2)cc1NC(=O)c1cc(F)cc(C(F)(F)F)c1` [I-231], the IC50 fell in the range of 1 to 10 µM.

Molecule `CNC(=O)c1cnc(Nc2ccccc2C)c(Nc2cc(F)c3cn[nH]c3c2)c1` [I-327] yielded an IC50 of 10 to 100 µM.

`Cc1ccccc1Nc1ncc(-c2cnn(C)c2)cc1NC(=O)c1ccnc2c1ccn2C` [I-98] showed an IC50 of 10 to 100 µM.

`CNC(=O)c1cnc(Nc2ccccc2C)c(NC(=O)c2cc(C)n(C(F)F)n2)c1` [I-369] returned a half-inhibitory concentration (IC50) of 10 to 100 µM.

Regarding `Cc1ccccc1Nc1ncc(-c2cnn(C)c2)cc1NC(=O)c1cc(F)cc(Cl)c1` [I-97], the IC50 was 0.5 to 1 µM.

On to `Cc1ccccc1Nc1ncc(N2CCN(C(=O)OC(C)(C)C)CC2)cc1NC(=O)c1cc(F)cc(C(F)(F)F)c1` [I-270], for which the IC50 fell in the range of 1 to 10 µM.

Consider `COC(=O)c1cnc(Nc2ccccc2C)c(NC(=O)c2cc(F)cc(C(F)(F)F)c2)c1` [I-3], for which the IC50 fell in the range of 1 to 10 µM.

In turn, `Cc1ccccc1Nc1ncc(-c2cnn(C)c2)cc1NC(=O)c1ccc(S(C)(=O)=O)cc1` [I-123] displayed an IC50 of 10 to 100 µM.

Turning to `CNC(=O)c1cnc(Nc2ccc(OC)cc2)c(NC(=O)c2cc(F)cc(C(F)(F)F)c2)c1` [I-174], the IC50 lay in the range of 10 to 100 µM.

In turn, `COCCn1cc(-c2cnc(Nc3ccccc3C)c(NC(=O)c3cc(F)cc(C(F)(F)F)c3)c2)cn1` [I-148] displayed an IC50 of 0.5 to 1 µM.

The molecule `O=C1NCc2ccccc2C1c1ccccc1-c1nc2c(F)cc(C(F)(F)F)cc2[nH]1` (stereo not drawn) [I-820, 4-{2-[4-fluoro-6-(trifluoromethyl)-1H-1,3-benzodiazol-2-yl]phenyl}-1,2,3,4-tetrahydroisoquinolin-3-one] displayed a half-maximal inhibitory concentration (IC50) of 10 to 100 µM.

Consider `Cc1ccccc1Nc1ncc(C2=CCNCC2)cc1NC(=O)c1cc(F)cc(C(F)(F)F)c1` [I-16], for which the half-maximal inhibitory concentration (IC50) was 10 to 100 µM.

Molecule `Cc1ccc(Nc2ncc(C(=O)NCc3ccnn3C)cc2NC(=O)c2csc3ccccc23)cc1` [I-261] registered a concentration for half-maximal inhibition (IC50) of 1 to 10 µM.

For `Cc1ccccc1Nc1ncc(N)cc1NC(=O)c1cc(F)cc(C(F)(F)F)c1` [I-70], the concentration for half-maximal inhibition (IC50) lay in the range of 1 to 10 µM.

Regarding `CNC(=O)c1cnc(Nc2ccccc2C)c(NC(=O)c2cccc(F)c2)c1` [I-143], the IC50 lay in the range of 10 to 100 µM.

With `Cc1ccccc1Nc1ncc(-c2cnn(C)c2)cc1NC(=O)c1ccccc1OC(F)(F)F` [I-111], the half-maximal inhibitory concentration (IC50) lay within 10 to 100 µM.

`CNC(=O)c1cnc(Nc2ccccc2C)c(NC(=O)c2ccc(OC(F)(F)F)c(F)c2)c1` [I-391]: the IC50 was 10 to 100 µM.

`Cc1ccccc1Nc1ncc(C(=O)N2CCCC2)cc1NC(=O)c1cc(F)cc(C(F)(F)F)c1` [I-15] showed an IC50 of 10 to 100 µM.

As for `Cc1ccccc1N[C@H]1CCN(C2CCC2)C[C@H]1C(=O)Nc1cc(F)cc(C(F)(F)F)c1` (racemic) [I-252], the IC50 is 10 to 100 µM.

`Cc1ccccc1Nc1ncc(C(=O)NC2CS(=O)(=O)C2)cc1NC(=O)c1cncc2ccccc12` [I-356] yielded an IC50 of 10 to 100 µM.

The molecule `Cc1ccccc1Nc1ncc(C(=O)N2CCOCC2)cc1NC(=O)c1cc(F)cc(C(F)(F)F)c1` [I-22] came in with a 50% inhibitory concentration (IC50) of 10 to 100 µM.

In turn, `CNC(=O)c1cnc(Nc2ccccc2C)c(NC(=O)c2ccc3ccccc3c2)c1` [I-182] gave a half-maximal inhibitory concentration (IC50) of 10 to 100 µM.

The molecule `CNC(=O)c1cnc(Nc2ccccc2C)c(NC(=O)c2cc(F)c3[nH]ncc3c2)c1` [I-393] showed an IC50 of 10 to 100 µM.

The molecule `CNc1ncc(-c2cnn(C)c2)cc1NC(=O)c1cc(F)cc(C(F)(F)F)c1` [I-71] registered an IC50 of 10 to 100 µM.

In turn, `Cc1ccc(Nc2ncc(C(=O)NC3CS(=O)(=O)C3)cc2NC(=O)c2csc3ccccc23)cc1` [I-222] returned an IC50 of 1 to 10 µM.

In turn, `CNC(=O)c1cnc(Nc2ccccc2C)c(NC(=O)C2CCOc3ccccc32)c1` (stereo not drawn) [I-259] registered a half-maximal inhibitory concentration (IC50) of 10 to 100 µM.

With `CNC(=O)c1cnc(Nc2ccccc2C)c(NC(=O)c2ccc(F)c3ccccc23)c1` [I-236], the IC50 fell in the range of 10 to 100 µM.

Molecule `COc1ccc(C(=O)Nc2cc(-c3cnn(C)c3)cnc2Nc2ccccc2C)cc1` [I-126] showed a half-inhibitory concentration (IC50) of 10 to 100 µM.

Staying with this test, now noted: ADP-Glo biochemical PIK3CA kinase assay.
In the case of `Cc1ccccc1Nc1ncc(C(=O)NCc2ccc(Cl)cc2)cc1NC(=O)c1cc(F)cc(C(F)(F)F)c1` [I-702], the IC50 fell in the range of 0.5 to 1 µM.

`Cc1ccccc1Nc1ncc(C(=O)NC2CCN(C)C2)cc1NC(=O)c1csc2ccccc12` (stereo not drawn) [I-574] registered a half-inhibitory concentration (IC50) of 1 to 10 µM.

Molecule `Nc1cc(C(=O)NC2CS(=O)(=O)C2)cnc1N1CCOc2ccccc21` [I-630] had a half-inhibitory concentration (IC50) of 1 to 10 µM.

`CNC(=O)c1cnc(Nc2ccccc2C)c(NC(=O)c2cc(C)cc(OC)c2)c1` [I-478]: the IC50 lay within 10 to 100 µM.

Molecule `CNC(=O)c1cnc(Nc2ccccc2C)c(NC(=O)c2csc3cc(F)cc(F)c23)c1` [I-404] gave an IC50 of 10 to 100 µM.

`CNC(=O)c1cnc(Nc2ccccc2C)c(NC(=O)C2(c3ccc(F)c(F)c3)CC2)c1` [I-481]: the half-maximal inhibitory concentration (IC50) is 10 to 100 µM.

`Cc1nn(C(=O)c2cc(F)cc(C(F)(F)F)c2)c(N)c1-c1ccccc1` [I-779] gave a half-maximal inhibitory concentration (IC50) of 1 to 10 µM.

On to `Cc1ccccc1Nc1ncc(C(=O)N[C@@H]2CC[C@@H](C(=O)O)C2)cc1NC(=O)c1csc2ccccc12` (single isomer, unassigned) [I-661], for which the IC50 was 1 to 10 µM.

Molecule `CNC(=O)c1cnc(Nc2ccccc2C)c(NC(=O)c2ccn3ccnc3c2)c1` [I-647] yielded a half-inhibitory concentration (IC50) of 1 to 10 µM.

Molecule `CNC(=O)c1cnc(Nc2ccccc2C)c(NC(=O)Cc2c[nH]c3cc(F)c(F)cc23)c1` [I-467] came in with a 50% inhibitory concentration (IC50) of 10 to 100 µM.

`Cc1ccccc1Nc1ncc(C(=O)Nc2cnn3cccc(F)c23)cc1NC(=O)c1csc2ccccc12` [I-500] returned an IC50 of 10 to 100 µM.

Molecule `CNC(=O)c1cnc(Nc2ccccc2C)c(NC(=O)c2onc3c2CCCC3)c1` [I-463] showed a half-maximal inhibitory concentration (IC50) of 10 to 100 µM.

Molecule `CNC(=O)c1cnc(Nc2ccccc2C)c(NC(=O)c2cn(C)c3ncccc23)c1` [I-480] displayed a 50% inhibitory concentration (IC50) of 10 to 100 µM.

As to `CNC(=O)c1cnc(Nc2ccccc2C)c(NC(=O)c2cc3c(Br)cccc3[nH]2)c1` [I-485], the IC50 was 10 to 100 µM.

`CNC(=O)c1cnc(Nc2ccccc2C)c(NC(=O)c2cnc3c(Cl)cccn23)c1` [I-414]: the IC50 lay within 10 to 100 µM.

`CNC(=O)c1cnc(Nc2c3c(nn2C)CCCC3)c(NC(=O)c2csc3ccccc23)c1` [I-732] returned an IC50 of 1 to 10 µM.

On to `CNC(=O)c1cnc(Nc2ccccc2C)c(NC(=O)c2ccc3ncc(Br)n3c2)c1` [I-575], for which the IC50 was in the range of 0.5 to 1 µM.

The molecule `CNC(=O)c1cnc(Nc2ccccc2C)c(NC(=O)c2cn(C)nc2C(F)F)c1` [I-417] had an IC50 of 10 to 100 µM.

With `Nc1ncc(C(=O)NC2CC(F)(F)C2)cc1NC(=O)c1csc2ccccc12` [I-675], the IC50 lay within 1 to 10 µM.

As for `CNC(=O)c1cnc(NCCC#N)c(NC(=O)c2cc(F)cc(C(F)(F)F)c2)c1` [I-550], the half-inhibitory concentration (IC50) fell in the range of 1 to 10 µM.

`Cc1ccccc1Nc1ncc(C(=O)N[C@@H]2C3CCC(C3)[C@H]2C(=O)O)cc1NC(=O)c1csc2ccccc12` (stereo partly drawn) [I-559] yielded a 50% inhibitory concentration (IC50) of 1 to 10 µM.

`CNC(=O)c1cnc(Nc2ccccc2C)c(NC(=O)c2cccc3ccn(C)c23)c1` [I-518]: the IC50 fell in the range of 10 to 100 µM.

With `Cc1ccccc1Nc1ncc(C(=O)NCC2(C#N)CCCC2)cc1NC(=O)c1csc2ccccc12` [I-511], the half-maximal inhibitory concentration (IC50) lay within 10 to 100 µM.

The molecule `CNC(=O)c1cnc(Nc2ccccc2C)c(NC(=O)c2cc3c(Cl)cccn3c2)c1` [I-462] showed an IC50 of 10 to 100 µM.

For `Nc1cnc(Nc2cc(F)ccc2Cl)c(NC(=O)c2cc(F)cc(C(F)(F)F)c2)c1` [I-780], the IC50 lay in the range of 10 to 100 µM.

The molecule `N#Cc1cccc(NC(=O)c2cc(F)cc(C(F)(F)F)c2)c1Cc1ccccc1Cl` [I-793] came in with a 50% inhibitory concentration (IC50) of 0.1 to 0.5 µM.

On to `CNC(=O)c1cnc(Nc2ccccc2C)c(NC(=O)c2ccc(F)c(C)c2Cl)c1` [I-479], for which the half-inhibitory concentration (IC50) lay in the range of 10 to 100 µM.

`CNC(=O)c1cnc(Nc2ccccc2C)c(NC(=O)c2cnn3cccc(OC)c23)c1` [I-430] showed a half-inhibitory concentration (IC50) of 10 to 100 µM.

Regarding `CNC(=O)c1cnc(Nc2cc(F)ccc2Cl)c(NC(=O)c2csc3ccccc23)c1` [I-775], the IC50 lay in the range of 1 to 10 µM.

With `CNC(=O)c1cnc(Nc2ccccc2C)c(NC(=O)C2CCc3ccccc3O2)c1` (stereo not drawn) [I-649], the 50% inhibitory concentration (IC50) is 1 to 10 µM.

As for `COc1ccnc(CNC(=O)c2cnc(Nc3ccccc3C)c(NC(=O)c3cc(F)cc(C(F)(F)F)c3)c2)c1` [I-720], the half-maximal inhibitory concentration (IC50) fell in the range of 1 to 10 µM.

On to `CNC(=O)c1cnc(Nc2ccccc2C)c(NC(=O)c2nc(Cl)cc3ccccc23)c1` [I-555], for which the IC50 lay within 1 to 10 µM.
